In patent US7566739B2, “Substituted N-sulfonylaminophenylethyl-2-phenoxyacetamide compounds as VR1 receptor antagonists” (Pfizer Inc., priority 2005, dated 2009):

Tests used:
human VR1 = human VR1 (Homo sapiens, UniProt Q8NER1); experiment: Human VR1 antagonist assay (Ca2+ imaging, capsaicin stimulation); type: cell-based; details: human VR1 expressing cells; concentration reducing capsaicin-evoked Ca2+ influx by 50%; capsaicin 300 nM; read-out: hVR1 IC50
Source text: VR1 antagonistic activity can be determined by the Ca^2+ imaging assay using human VR1 highly expressing cells. The cells that highly express human VR1 receptors are obtainable from several different conventional methods. The one standard method is cloning from human Dorsal Root Ganglion (DRG) or kidney according to the methods such as described in the journal article; Nature, 389, pp 816-824, 1997. Alternatively VR1 receptors highly expressing human keratinocytes are also known and published in the journal article (Biochemical and Biophysical Research Communications, 291, pp 124-129, 2002). […] Such a genetic modification method was described in detail; Nat. Biotechnol., 19, pp 440-445, 2001. The cells that express human VR1 receptors were maintained in culture flask at 37° C. in an environment containing 5% CO2 until use in the assay. The intracellular Ca^2+ imaging assay to determine VR1 antagonistic activities was done according to the following procedures. The culture medium was removed from the flask and fura-2/AM fluorescent calcium indicator was added to the flask at a concentration of 5 μM in the medium. The flask was placed in CO2 incubator and incubated for 1 hour. Then the cells expressing the human VR1 receptors were detached from the flask follow by washing with phosphate buffer saline, PBS(−) and re-suspended in assay buffer. The 80 μl of aliquot of cell suspension (3.75×10^5 cells/ml) was added to the assay plate and the cells were spun down by centrifuge (950 rpm, 20° C., 3 minutes). The capsaicin-induced changes in the intracellular calcium concentration were monitored using FDSS 6000 (Hamamatsu Photonics, Japan), a fluorometric imaging system. The cell suspension in Krebs-Ringer HEPES (KRH) buffer (115 mM NaCl, 5.4 mM KCl, 1 mM MgSO4, 1.8 mM CaCl2, 11 mM D-Glucose, 25 mM HEPES, 0.96 mM Na2HPO4, pH 7.3) was pre-incubated with varying concentrations of the test compounds or KRH buffer (buffer control) for 15 minutes at room temperature under dark conditions. Then the capsaicin solution, which gives 300 nM in assay mixture, was automatically added to the assay plate by the FDSS 6000. The monitoring of the changes in the fluorescence signals (λex=340 nm/380 nm, λem=510-520 nm) was initiated at 1 minute prior to the addition of capsaicin solution or acidic buffer and continued for 5 minute.

[1] = Half-life in human liver microsomes (HLM); type: in vitro ADME; details: human liver microsomes (HLM, HL101), 1 μM compound, 0.78 mg/mL HLM, pH 7.4, 37° C., NADPH
Procedure: Test compounds (1 μM) were incubated with 3.3 mM MgCl2 and 0.78 mg/mL HLM (HL101) in 100 mM potassium phosphate buffer (pH 7.4) at 37° C. on the 96-deep well plate. The reaction mixture was split into two groups, a non-P450 and a P450 group. NADPH was only added to the reaction mixture of the P450 group. An aliquot of samples of P450 group was collected at 0, 10, 30, and 60 minute time points, where the 0 minute time point indicated the time when NADPH was added into the reaction mixture of P450 group. An aliquot of samples of non-P450 group was collected at −10 and 65 minute time points. Collected aliquots were extracted with an acetonitrile solution containing an internal standard. The precipitated protein was spun down in a centrifuge (2000 rpm, 15 min). The compound concentration in supernatant was measured by LC/MS/MS system.
The half-life value was obtained by plotting the natural logarithm of the peak area ratio of compounds/internal standard versus time. The slope of the line of best fit through the points yields the rate of metabolism (k). This was converted to a half-life value using following equations: Half-life=ln 2/k Mono-Iodoacetate (MIA)-Induced OA Model

Sequence of human VR1 (Q8NER1 whole entry): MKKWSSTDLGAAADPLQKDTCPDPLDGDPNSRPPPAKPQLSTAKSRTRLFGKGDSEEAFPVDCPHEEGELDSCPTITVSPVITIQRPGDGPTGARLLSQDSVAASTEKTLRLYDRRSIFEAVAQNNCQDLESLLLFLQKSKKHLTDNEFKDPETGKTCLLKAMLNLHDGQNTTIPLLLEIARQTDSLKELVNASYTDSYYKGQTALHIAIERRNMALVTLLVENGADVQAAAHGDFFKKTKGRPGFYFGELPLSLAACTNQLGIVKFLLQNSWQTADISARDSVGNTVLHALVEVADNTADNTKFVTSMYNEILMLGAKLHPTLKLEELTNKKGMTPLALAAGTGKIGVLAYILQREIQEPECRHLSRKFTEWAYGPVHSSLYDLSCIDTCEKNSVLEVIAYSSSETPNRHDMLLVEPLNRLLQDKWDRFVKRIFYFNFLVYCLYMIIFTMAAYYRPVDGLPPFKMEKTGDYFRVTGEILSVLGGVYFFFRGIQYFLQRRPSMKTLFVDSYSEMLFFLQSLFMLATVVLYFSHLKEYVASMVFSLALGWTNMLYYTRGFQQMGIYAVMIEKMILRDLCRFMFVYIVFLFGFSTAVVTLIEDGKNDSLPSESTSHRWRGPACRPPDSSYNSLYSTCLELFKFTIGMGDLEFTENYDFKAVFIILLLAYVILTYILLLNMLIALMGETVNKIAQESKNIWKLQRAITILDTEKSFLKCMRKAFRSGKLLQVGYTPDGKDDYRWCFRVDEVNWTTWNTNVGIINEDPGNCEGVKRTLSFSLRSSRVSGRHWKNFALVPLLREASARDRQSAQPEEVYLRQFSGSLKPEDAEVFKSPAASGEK

| IC50 (human VR1) [nM] | half-life at 1 μM [1] [min] | Compound |
| --- | --- | --- |
| 3.13 | 31 | Cc1cc([C@@H](C)NC(=O)COc2cc(F)c(C(C)(C)C)c(F)c2)ccc1NS(C)(=O)=O [Example 1, 2-(4-TERT-BUTYL-3,5-DIFLUOROPHENOXY)-N-((1R)-1-{3-METHYL-4-[(METHYLSULFONYL)AMINO]PHENYL}ETHYL)ACETAMIDE] |
| 31.3 | 12 | C[C@@H](NC(=O)COc1cc(F)c(C(C)(C)C)c(F)c1)c1ccc(NS(C)(=O)=O)c(F)c1 [Example 2, 2-(4-TERT-BUTYL-3,5-DIFLUOROPHENOXY)-N-((1R)-1-{3-FLUORO-4-[(METHYLSULFONYL)AMINO]PHENYL}ETHYL)ACETAMIDE] |
| 34.4 | 48 | C[C@@H](NC(=O)COc1cc(F)c(C(C)(C)C)c(F)c1)c1ccc(NS(C)(=O)=O)cc1 [Example 3, 2-(4-TERT-BUTYL-3,5-DIFLUOROPHENOXY)-N-((1R)-1-{4-[(METHYLSULFONYL)AMINO]PHENYL}ETHYL)ACETAMIDE] |
| 8.7 | 5.8 | C[C@@H](NC(=O)COc1cc(F)c(C(C)(C)C)c(F)c1)c1ccc(NS(C)(=O)=O)c(CO)c1 [Example 4, 2-(4-TERT-BUTYL-3,5-DIFLUOROPHENOXY)-N-((1R)-1-{3-(HYDROXYMETHYL)-4-[(METHYLSULFONYL)AMINO]PHENYL}ETHYL)ACETOAMIDE] |
| 7.55 | 13 | Cc1cc([C@@H](C)NC(=O)COc2cc(F)c(C(C)(C)C(F)(F)F)c(F)c2)ccc1NS(C)(=O)=O [Example 5, 2-[3,5-DIFLUORO-4-(2,2,2-TRIFLUORO-1,1-DIMETHYLETHYL)PHENOXY]-N-((1R)-1-{3-METHYL-4-[(METHYLSULFONYL)AMINO]PHENYL}ETHYL)ACETAMIDE] |
